Data on 15 molecules can be found in US12319672B2, “Alpha-D-galactopyranoside derivatives” (Idorsia Pharmaceuticals Ltd, priority 2019, dated 2025).

One assay concerns the target human Gal-3 (hGal-3) (Homo sapiens (Human), UniProt P17931). Nature of the assay: Competitive binding assay: binding of biotinylated hGal-3 to microplate-adsorbed asialofetuin (ASF). As to conditions: Activity on hGal-3; mean values of several measurements. As for the experimental part: (§1) Evaluation of Compound Inhibitory Activity (IC50)
(§2) The inhibitory activity of compounds is determined in competitive binding assays. This spectrophotometric assay measures the binding of biotinylated human Gal-3 (hGal-3) or human Gal-1 (hGal-1), respectively, to a microplate-adsorbed glycoprotein, asialofetuin (ASF) (Proc Natl Acad Sci USA. 2013 Mar. 26; 110(13):5052-7.). Alternatively, and preferably, a human Gal-1 version in which all six cysteines are substituted by serines may be used.
(§3) Briefly, compounds are serially diluted in DMSO (working dilutions). ASF-coated 384 well plates are supplemented with 22.8 μL/well of biotinylated hGal-3 or hGal-1 in assay buffer (i.e. 300-1000 ng/mL biotinylated hGal-3 or hGal-1) to which 1.2 μL of compound working dilutions are added and mixed.
(§4) Plates are incubated for 3 hours at 4° C., then washed with cold assay buffer (3×50 uL), incubated for 1 hour with 25 μL/well of a streptavidin-peroxidase solution (diluted in assay buffer to 80 ng/mL) at 4° C., followed by further washing steps with assay buffer (3×50 uL). Finally, 25 μL/well of ABTS substrate is added.
(§5) The calculated IC50 values may fluctuate depending on the daily assay performance. Fluctuations of this kind are known to those skilled in the art. IC50 values from several measurements are given as mean values.

Another assay concerns the target human Gal-1 (hGal-1). As to the kind of experiment: Competitive binding assay: binding of biotinylated hGal-1 to microplate-adsorbed asialofetuin (ASF). As to conditions: Activities on hGal-1; mean values of several measurements. As for the experimental part: as §1, §2, §3, §4, §5

Sequence of human Gal-3 (hGal-3) (P17931 whole entry): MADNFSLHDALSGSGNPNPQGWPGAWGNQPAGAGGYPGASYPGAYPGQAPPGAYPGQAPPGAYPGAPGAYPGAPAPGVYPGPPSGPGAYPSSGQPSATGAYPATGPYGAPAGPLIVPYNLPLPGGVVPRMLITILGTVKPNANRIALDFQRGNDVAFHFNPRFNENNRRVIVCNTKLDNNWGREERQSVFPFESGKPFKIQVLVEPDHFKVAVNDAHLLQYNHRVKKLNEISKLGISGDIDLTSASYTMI
Sequence of human Gal-1 (hGal-1) (P09382 2-135 limits assumed): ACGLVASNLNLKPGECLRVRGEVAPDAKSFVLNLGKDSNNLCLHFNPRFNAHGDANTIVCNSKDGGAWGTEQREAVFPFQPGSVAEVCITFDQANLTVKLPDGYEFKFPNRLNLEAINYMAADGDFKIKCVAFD

On to `CC(=O)O[C@@H]1[C@@H](n2cc(-c3cc(F)c(F)c(F)c3)nn2)[C@@H](O)[C@@H](CO)O[C@@H]1CC1=NOC(C2CCN(C(C)=O)CC2)C1` (mixture of isomers) [Example 3.23, (2R,3R,4S,5R,6R)-2-(((RS)-5-(1-acetylpiperidin-4-yl)-4,5-dihydroisoxazol-3-yl)methyl)-5-hydroxy-6-(hydroxymethyl)-4-(4-(3,4,5-trifluorophenyl)-1H-1,2,3-triazol-1-yl)tetrahydro-2H-pyran-3-yl acetate], for which the IC50 at human Gal-3 (hGal-3) was 230 nM; at human Gal-1 (hGal-1), 3990 nM.
In the case of `CO[C@@H]1[C@@H](n2cc(-c3cc(F)c(F)c(F)c3)nn2)[C@@H](O)[C@@H](CO)O[C@@H]1CC1=NOC(C2CCNCC2)C1` (mixture of isomers) [Example 3.36, (2R,3R,4S,5R,6R)-2-(hydroxymethyl)-5-methoxy-6-(((RS)-5-(piperidin-4-yl)-4,5-dihydroisoxazol-3-yl)methyl)-4-(4-(3,4,5-trifluorophenyl)-1H-1,2,3-triazol-1-yl)tetrahydro-2H-pyran-3-ol], the half-inhibitory concentration (IC50) is 1160 nM at human Gal-3 (hGal-3) and 8140 nM on human Gal-1 (hGal-1).
For `CO[C@@H]1[C@@H](n2cc(-c3cc(F)c(F)c(F)c3)nn2)[C@@H](O)[C@@H](CO)O[C@@H]1CC1=NOC(C2CCN(C(C)=O)CC2)C1` (mixture of isomers) [Example 3.40, 1-(4-((RS)-3-(((2R,3R,4S,5R,6R)-5-hydroxy-6-(hydroxymethyl)-3-methoxy-4-(4-(3,4,5-trifluorophenyl)-1H-1,2,3-triazol-1-yl)tetrahydro-2H-pyran-2-yl)methyl)-4,5-dihydroisoxazol-5-yl)piperidin-1-yl)ethan-1-one], in that order: 310 nM and 1210 nM.
For `CCC(C)C(=O)N1CCC(c2cc(C[C@H]3O[C@H](CO)[C@H](O)[C@H](n4cc(-c5cc(F)c(F)c(F)c5)nn4)[C@H]3OC)no2)CC1` (mixture of isomers) [Example 3.53, (RS)-1-(4-(3-(((2R,3R,4S,5R,6R)-5-hydroxy-6-(hydroxymethyl)-3-methoxy-4-(4-(3,4,5-trifluorophenyl)-1H-1,2,3-triazol-1-yl)tetrahydro-2H-pyran-2-yl)methyl)isoxazol-5-yl)piperidin-1-yl)-2-methylbutan-1-one], the figures for the IC50 at human Gal-3 (hGal-3) and at human Gal-1 (hGal-1) were 190 nM and 2510 nM, respectively.
On the same counts, the results for `CO[C@@H]1[C@@H](n2cc(-c3cc(F)c(F)c(F)c3)nn2)[C@@H](O)[C@@H](CO)O[C@@H]1Cc1cc(C2CCN([S+]([O-])C(C)(C)C)CC2)on1` (mixture of isomers) [Example 3.55, (2R,3R,4S,5R,6R)-6-((5-(1-((RS)-tert-butylsulfinyl)piperidin-4-yl)isoxazol-3-yl)methyl)-2-(hydroxymethyl)-5-methoxy-4-(4-(3,4,5-trifluorophenyl)-1H-1,2,3-triazol-1-yl)tetrahydro-2H-pyran-3-ol] are 90 nM and 2990 nM.
For `CO[C@@H]1[C@@H](n2cc(-c3cc(F)c(F)c(F)c3)nn2)[C@@H](O)[C@@H](CO)O[C@@H]1Cc1cc(C2CCN(S(=N)(=O)C(C)(C)C)CC2)on1` (mixture of isomers) [Example 3.56, (RS)-(2R,3R,4S,5R,6R)-2-(hydroxymethyl)-5-methoxy-6-((5-(1-(2-methylpropan-2-ylsulfonimidoyl)piperidin-4-yl)isoxazol-3-yl)methyl)-4-(4-(3,4,5-trifluorophenyl)-1H-1,2,3-triazol-1-yl)tetrahydro-2H-pyran-3-ol], in that order: 20 nM and 610 nM.
For `CN=S(=O)(C(C)C)N1CCC(c2cc(C[C@H]3O[C@H](CO)[C@H](O)[C@H](n4cc(-c5cc(F)c(F)c(F)c5)nn4)[C@H]3OC)no2)CC1` (mixture of isomers) [Example 3.57, (RS)-(2R,3R,4S,5R,6R)-2-(hydroxymethyl)-5-methoxy-6-((5-(1-(N-methylpropan-2-ylsulfonimidoyl)piperidin-4-yl)isoxazol-3-yl)methyl)-4-(4-(3,4,5-trifluorophenyl)-1H-1,2,3-triazol-1-yl)tetrahydro-2H-pyran-3-ol], in that order: 97 nM and 1400 nM.
Turning to `COc1ccc(N2CC(C[C@H]3O[C@H](CO)[C@H](O)[C@H](n4cc(-c5cc(F)c(F)c(F)c5)nn4)[C@H]3OC)OC2=O)cc1` (mixture of isomers) [Example 5.01, (RS)-5-(((2R,3R,4S,5R,6R)-5-hydroxy-6-(hydroxymethyl)-3-methoxy-4-(4-(3,4,5-trifluorophenyl)-1H-1,2,3-triazol-1-yl)tetrahydro-2H-pyran-2-yl)methyl)-3-(4-methoxyphenyl)oxazolidin-2-one], the IC50 on human Gal-3 (hGal-3) was 1570 nM; on human Gal-1 (hGal-1) it was 5280 nM.
For `CO[C@@H]1[C@@H](n2cc(-c3cc(F)c(F)c(F)c3)nn2)[C@@H](O)[C@@H](CO)O[C@@H]1CC1CN(c2ccc(OC(F)F)cc2)C(=O)O1` (mixture of isomers) [Example 5.02, (RS)-3-(4-(difluoromethoxy)phenyl)-5-(((2R,3R,4S,5R,6R)-5-hydroxy-6-(hydroxymethyl)-3-methoxy-4-(4-(3,4,5-trifluorophenyl)-1H-1,2,3-triazol-1-yl)tetrahydro-2H-pyran-2-yl)methyl)oxazolidin-2-one], the figures for the IC50 at human Gal-3 (hGal-3) and at human Gal-1 (hGal-1) were 1560 nM and 3550 nM, respectively.
For `CO[C@@H]1[C@@H](n2cc(-c3cc(F)c(F)c(F)c3)nn2)[C@@H](O)[C@@H](CO)O[C@@H]1CC1CN(C2CCN(C(C)=O)CC2)C(=O)O1` (mixture of isomers) [Example 5.03, (RS)-3-(1-acetylpiperidin-4-yl)-5-(((2R,3R,4S,5R,6R)-5-hydroxy-6-(hydroxymethyl)-3-methoxy-4-(4-(3,4,5-trifluorophenyl)-1H-1,2,3-triazol-1-yl)tetrahydro-2H-pyran-2-yl)methyl)oxazolidin-2-one], in that order: 120 nM and 650 nM.
On the same counts, the results for `CO[C@@H]1[C@@H](n2cc(-c3cc(F)c(F)c(F)c3)nn2)[C@@H](O)[C@@H](CO)O[C@@H]1CC1CN(C2CCN(S(C)(=O)=O)CC2)C(=O)O1` (mixture of isomers) [Example 5.04, (RS)-5-(((2R,3R,4S,5R,6R)-5-hydroxy-6-(hydroxymethyl)-3-methoxy-4-(4-(3,4,5-trifluorophenyl)-1H-1,2,3-triazol-1-yl)tetrahydro-2H-pyran-2-yl)methyl)-3-(1-(methylsulfonyl)piperidin-4-yl)oxazolidin-2-one] are 180 nM and 790 nM.
Regarding `CO[C@@H]1[C@@H](n2cc(-c3cc(F)c(F)c(F)c3)nn2)[C@@H](O)[C@@H](CO)O[C@@H]1CC1CN(C2CCN(C(=O)OC(C)(C)C)CC2)C(=O)O1` (mixture of isomers) [Example 5.09, tert-butyl 4-((RS)-5-(((2R,3R,4S,5R,6R)-5-hydroxy-6-(hydroxymethyl)-3-methoxy-4-(4-(3,4,5-trifluorophenyl)-1H-1,2,3-triazol-1-yl)tetrahydro-2H-pyran-2-yl)methyl)-2-oxooxazolidin-3-yl)piperidine-1-carboxylate], the values for the IC50 on human Gal-3 (hGal-3) and on human Gal-1 (hGal-1) were 83 nM and 460 nM, respectively.
In the case of `CO[C@@H]1[C@@H](n2cc(-c3cc(F)c(F)c(F)c3)nn2)[C@@H](O)[C@@H](CO)O[C@@H]1CC1CN(C2CCN(C(=O)C(C)C)CC2)C(=O)O1` (mixture of isomers) [Example 5.10, (RS)-5-(((2R,3R,4S,5R,6R)-5-hydroxy-6-(hydroxymethyl)-3-methoxy-4-(4-(3,4,5-trifluorophenyl)-1H-1,2,3-triazol-1-yl)tetrahydro-2H-pyran-2-yl)methyl)-3-(1-isobutyrylpiperidin-4-yl)oxazolidin-2-one], the IC50 is 190 nM at human Gal-3 (hGal-3) and 280 nM at human Gal-1 (hGal-1).
On the same counts, the results for `CO[C@@H]1[C@@H](n2cc(-c3cc(F)c(F)c(F)c3)nn2)[C@@H](O)[C@@H](CO)O[C@@H]1CC1CN(C2CCN(C(=O)N(C)C)CC2)C(=O)O1` (mixture of isomers) [Example 5.11, 4-((RS)-5-(((2R,3R,4S,5R,6R)-5-hydroxy-6-(hydroxymethyl)-3-methoxy-4-(4-(3,4,5-trifluorophenyl)-1H-1,2,3-triazol-1-yl)tetrahydro-2H-pyran-2-yl)methyl)-2-oxooxazolidin-3-yl)-N,N-dimethylpiperidine-1-carboxamide] are 260 nM and 1500 nM.
Turning to `CO[C@@H]1[C@@H](n2cc(-c3cc(F)c(F)c(F)c3)nn2)[C@@H](O)[C@@H](CO)O[C@@H]1CC1CN(CC2CCN(C(=O)OC(C)(C)C)CC2)C(=O)O1` (mixture of isomers) [Example 5.16, tert-butyl 4-(((RS)-5-(((2R,3R,4S,5R,6R)-5-hydroxy-6-(hydroxymethyl)-3-methoxy-4-(4-(3,4,5-trifluorophenyl)-1H-1,2,3-triazol-1-yl)tetrahydro-2H-pyran-2-yl)methyl)-2-oxooxazolidin-3-yl)methyl)piperidine-1-carboxylate], the IC50 at human Gal-3 (hGal-3) turned out to be 630 nM; at human Gal-1 (hGal-1), 42100 nM.
